Patent US20090018134A1, “Compounds - 945” (AstraZeneca AB, priority 2007, published 2009)

target: T1, mTOR (Homo sapiens, UniProt P42345); test: In Vitro mTOR Kinase Assay (Echo), Test (a)(ii); type: biochemical; conditions: read-out: mTOR Kinase Assay (Echo)
T1 construct: FLAG; made in house
How it was run: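 Inhibition expressed as IC50 from an AlphaScreen read-out: phospho-T389 p70 S6K antibody plus streptavidin donor/protein A acceptor beads, left overnight in the dark. The kinase reaction ran 2 h at room temperature, then was stopped with EDTA. Enzyme: FLAG-purified mTOR 1362-2549 fragment from stable HEK293 cells.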

T1 sequence (P42345 1362-2549): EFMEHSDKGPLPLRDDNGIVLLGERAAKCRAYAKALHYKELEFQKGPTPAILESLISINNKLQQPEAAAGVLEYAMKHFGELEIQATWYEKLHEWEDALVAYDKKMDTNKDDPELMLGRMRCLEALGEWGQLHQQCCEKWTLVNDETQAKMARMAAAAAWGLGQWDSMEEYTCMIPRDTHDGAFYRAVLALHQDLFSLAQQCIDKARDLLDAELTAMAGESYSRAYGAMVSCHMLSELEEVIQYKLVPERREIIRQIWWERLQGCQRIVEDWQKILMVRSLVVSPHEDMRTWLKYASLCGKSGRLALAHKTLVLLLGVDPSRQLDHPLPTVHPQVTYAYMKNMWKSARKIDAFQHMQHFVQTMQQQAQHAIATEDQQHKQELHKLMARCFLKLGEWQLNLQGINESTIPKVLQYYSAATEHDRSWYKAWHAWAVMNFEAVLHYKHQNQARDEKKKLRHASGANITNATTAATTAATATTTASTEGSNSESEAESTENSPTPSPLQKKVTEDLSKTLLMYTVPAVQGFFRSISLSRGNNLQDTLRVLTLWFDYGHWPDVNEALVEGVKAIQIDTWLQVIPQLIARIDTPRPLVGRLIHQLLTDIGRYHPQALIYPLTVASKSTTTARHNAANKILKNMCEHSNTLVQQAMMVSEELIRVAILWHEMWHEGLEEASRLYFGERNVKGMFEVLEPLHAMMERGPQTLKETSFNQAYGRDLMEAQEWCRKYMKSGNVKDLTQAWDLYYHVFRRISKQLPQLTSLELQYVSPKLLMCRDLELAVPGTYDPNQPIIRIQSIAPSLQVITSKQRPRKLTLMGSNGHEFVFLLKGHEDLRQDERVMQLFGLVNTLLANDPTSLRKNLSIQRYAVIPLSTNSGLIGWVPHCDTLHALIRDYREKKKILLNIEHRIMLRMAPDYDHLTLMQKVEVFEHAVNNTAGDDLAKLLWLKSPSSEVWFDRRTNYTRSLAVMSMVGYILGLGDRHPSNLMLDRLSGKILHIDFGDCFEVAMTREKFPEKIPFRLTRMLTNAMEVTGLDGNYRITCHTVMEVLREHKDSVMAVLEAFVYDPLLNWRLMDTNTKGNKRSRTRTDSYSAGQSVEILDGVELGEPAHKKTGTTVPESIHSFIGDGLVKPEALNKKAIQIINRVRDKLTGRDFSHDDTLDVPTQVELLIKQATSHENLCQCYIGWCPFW

**Q.** With `Cc1nc(S(=O)(=O)C2(c3cc(N4CCOC[C@@H]4C)nc(-c4ccc(NC(=O)Nc5cnn(C)c5)cc4)n3)CC2)sc1C` [Example 81, 1-[4-[4-[1-[(4,5-Dimethyl-1,3-thiazol-2-yl)sulfonyl]cyclopropyl]-6-[(3S)-3-methylmorpholin-4-yl]pyrimidin-2-yl]phenyl]-3-(1-methylpyrazol-4-yl)urea] as the compound, how does the IC50 read?
**A.** 8.13 nM

same assay, conditions: table of enzyme assay Test (a)(ii); read-out: Test (a)(ii) IC50

**Q.** Which IC50 does the source give for `C[C@H]1COCCN1c1cc(C2(S(=O)(=O)CCC(C)(C)O)CC2)nc(-c2ccc(NC(=O)NCCO)cc2)n1` [Example 79b, 3-(2-hydroxyethyl)-1-[4-[4-[1-(3-hydroxy-3-methylbutyl)sulfonylcyclopropyl]-6-[(3S)-3-methylmorpholin-4-yl]pyrimidin-2-yl]phenyl]urea] here?
**A.** 10.9 nM

**Q.** How did the IC50 turn out when `C[C@H]1COCCN1c1cc(C2(S(=O)(=O)CCC(C)(C)O)CC2)nc(-c2ccc(NC(=O)NCCF)cc2)n1` [Example 79d, 3-(2-fluoroethyl)-1-[4-[4-[1-(3-hydroxy-3-methylbutyl)sulfonylcyclopropyl]-6-[(3S)-3-methylmorpholin-4-yl]pyrimidin-2-yl]phenyl]urea] was run?
**A.** 16.1 nM

**Q.** For `C[C@H]1COCCN1c1cc(C2(S(=O)(=O)CCC(C)(C)O)CC2)nc(-c2ccc(NC(=O)Nc3cnn(C)c3)cc2)n1` [Example 79e, 1-[4-[4-[1-(3-hydroxy-3-methylbutyl)sulfonylcyclopropyl]-6-[(3S)-3-methylmorpholin-4-yl]pyrimidin-2-yl]phenyl]-3-(1-methylpyrazol-4-yl)urea], which IC50 is on record?
**A.** 25.9 nM

**Q.** Which IC50 does the source give for `CCNC(=O)Nc1ccc(-c2nc(N3CCOC[C@@H]3C)cc(C3(S(=O)(=O)CCC(C)(C)O)CC3)n2)cc1` [Example 79f, 1-ethyl-3-[4-[4-[1-(3-hydroxy-3-methylbutyl)sulfonylcyclopropyl]-6-[(3S)-3-methylmorpholin-4-yl]pyrimidin-2-yl]phenyl]urea] here?
**A.** 39.8 nM

**Q.** How did the IC50 turn out when `Cc1nc(S(=O)(=O)C2(c3cc(N4CCOC[C@@H]4C)nc(-c4ccc(NC(=O)NCC(F)F)cc4)n3)CC2)sc1C` [Example 80, 3-(2,2-Difluoroethyl)-1-[4-[4-[1-[(4,5-dimethyl-1,3-thiazol-2-yl)sulfonyl]cyclopropyl]-6-[(3S)-3-methylmorpholin-4-yl]pyrimidin-2-yl]phenyl]urea] was run?
**A.** 19.7 nM

**Q.** With `Cc1nc(S(=O)(=O)C2(c3cc(N4CCOC[C@@H]4C)nc(-c4ccc(NC(=O)NCCF)cc4)n3)CC2)sc1C` [Example 80a, 1-[4-[4-[1-[(4,5-dimethyl-1,3-thiazol-2-yl)sulfonyl]cyclopropyl]-6-[(3S)-3-methylmorpholin-4-yl]pyrimidin-2-yl]phenyl]-3-(2-fluoroethyl)urea] as the compound, how does the IC50 read?
**A.** 14.6 nM

**Q.** With `Cc1nc(S(=O)(=O)C2(c3cc(N4CCOC[C@@H]4C)nc(-c4ccc(NC(=O)NC5CC5)cc4)n3)CC2)sc1C` [Example 80b, 3-cyclopropyl-1-[4-[4-[1-[(4,5-dimethyl-1,3-thiazol-2-yl)sulfonyl]cyclopropyl]-6-[(3S)-3-methylmorpholin-4-yl]pyrimidin-2-yl]phenyl]urea] as the compound, how does the IC50 read?
**A.** 10.3 nM

**Q.** `Cc1nc(S(=O)(=O)C2(c3cc(N4CCOC[C@@H]4C)nc(-c4ccc(NC(=O)NCCO)cc4)n3)CC2)sc1C` [Example 80c, 1-[4-[4-[1-[(4,5-dimethyl-1,3-thiazol-2-yl)sulfonyl]cyclopropyl]-6-[(3S)-3-methylmorpholin-4-yl]pyrimidin-2-yl]phenyl]-3-(2-hydroxyethyl)urea] was tested. Which IC50 did it give?
**A.** 9.21 nM

**Q.** How did the IC50 turn out when `CNC(=O)Nc1ccc(-c2nc(N3CCOC[C@@H]3C)cc(C3(S(=O)(=O)c4nc(C)c(C)s4)CC3)n2)cc1` [Example 80d, 1-[4-[4-[1-[(4,5-dimethyl-1,3-thiazol-2-yl)sulfonyl]cyclopropyl]-6-[(3S)-3-methylmorpholin-4-yl]pyrimidin-2-yl]phenyl]-3-methylurea] was run?
**A.** 9.51 nM

**Q.** Which IC50 does the source give for `CCNC(=O)Nc1ccc(-c2nc(N3CCOC[C@@H]3C)cc(C3(S(=O)(=O)c4nc(C)c(C)s4)CC3)n2)cc1` [Example 80e, 3-[4-[4-[1-[(4,5-dimethyl-1,3-thiazol-2-yl)sulfonyl]cyclopropyl]-6-[(3S)-3-methylmorpholin-4-yl]pyrimidin-2-yl]phenyl]-1-ethylurea] here?
**A.** 14.3 nM

**Q.** How did the IC50 turn out when `Cc1nc(S(=O)(=O)C2(c3cc(N4CCOC[C@@H]4C)nc(-c4ccc(NC(=O)Nc5cnn(C)c5)cc4)n3)CC2)sc1C` [Example 81, 1-[4-[4-[1-[(4,5-Dimethyl-1,3-thiazol-2-yl)sulfonyl]cyclopropyl]-6-[(3S)-3-methylmorpholin-4-yl]pyrimidin-2-yl]phenyl]-3-(1-methylpyrazol-4-yl)urea] was run?
**A.** 13.7 nM
